{"source": "patent US6376500B2", "about": "“Substituted 2-(4-piperidyl)-4(3H)-quinazolinones and 2-(4-piperidyl)-4(3H)-azaquinazolinones” (Syntex (U.S.A.) LLC, priority 1999, dated 2002)", "note": "Structures can show the parent of a compound that is named as a salt."}
{"tested_on": "anesthetized dog", "test": "Dog in vivo blood and intraurethral pressure assay", "details": "i.v., anesthetized mongrel dogs", "experimental": "The following describes an in vivo assay for measuring the relative effect of test compounds on hypogastric nerve stimulation-induced increases in intraurethral pressure and phenylephrine-induced increases in diastolic blood pressure in anesthetized dog.\nMongrel dogs (10 to 20 kg) were fasted for 12 to 18 hours and anesthetized with […] (35 mg/kg, i.v.). An endotracheal tube was inserted and thereafter the lungs were mechanically ventilated with room air. The right femoral vein was isolated and cannulated with two polyethylene cannulae, one for the administration of a continuous infusion of phenobarbital sodium (5 to 10 mg/kg/hr) and the other for bolus administration of test substances. The right femoral artery was isolated and cannulated to the abdominal aorta with a fluid filled polyethylene cannula connected to an external pressure transducer for monitoring diastolic aortic pressure (DAP). The bladder was exposed via a ventral midline abdominal incision and emptied of urine through a 22 gauge needle. The bladder was cannulated through a stab incision with a water filled balloon catheter connected to an external pressure transducer for monitoring prostatic intraurethral pressure (IUP). The right hypogastric nerve (HGN) was carefully isolated and attached to a Dastre's electrode for nerve stimulation. […]"}
{"smiles": "COc1cc2nc(N3CCN(C(=O)c4ccco4)CC3)nc(N)c2cc1OC", "note": "[prazosin]", "inhibition of HGN stimulation-induced increases in IUP and phenylephrine-induced increases in DAP": "inhibited increases in IUP and DAP in similar fashion"}
{"tested_on": "not given", "test": "not given", "details": "not given"}
{"smiles": "Cl.Cl.O=c1[nH]c(C2CCN(CCc3c[nH]c4ccccc34)CC2)nc2cc(Cl)ccc12", "melting point": "190 to 195 °C"}
{"smiles": "Cl.O=c1[nH]c(C2CCN(CCc3c[nH]c4ccccc34)CC2)nc2cc(F)ccc12", "melting point": "220 to 225 °C"}
{"smiles": "Cl.O=c1[nH]c(C2CCN(CCc3c[nH]c4ccc(F)cc34)CC2)nc2ccccc12", "melting point": "298 to 301 °C"}
{"smiles": "Cl.O=c1[nH]c(C2CCN(CCc3c[nH]c4ccc(F)cc34)CC2)nc2ccc(Cl)cc12", "melting point": "290 °C (dec.)"}
{"smiles": "Cl.O=c1[nH]c(C2CCN(CCc3c[nH]c4ccc(F)cc34)CC2)nc2cc(Cl)ccc12", "melting point": "300 °C (dec.)"}
{"smiles": "Cl.O=c1[nH]c(C2CCN(CCc3c[nH]c4ccc(F)cc34)CC2)nc2cc(F)ccc12", "melting point": "283 °C (dec.)"}
{"smiles": "Cl.O=c1[nH]c(C2CCN(CCc3c[nH]c4cc(F)ccc34)CC2)nc2ccccc12", "melting point": "263 to 264 °C"}
{"smiles": "Cl.O=c1[nH]c(C2CCN(CCc3c[nH]c4cc(F)ccc34)CC2)nc2ccc(Cl)cc12", "melting point": "292 to 294 °C"}
{"smiles": "Cl.O=c1[nH]c(C2CCN(CCc3c[nH]c4cc(F)ccc34)CC2)nc2cc(Cl)ccc12", "melting point": "256 to 266 °C"}
{"smiles": "Cl.Cl.O=c1[nH]c(C2CCN(CCc3c[nH]c4cc(F)ccc34)CC2)nc2ccc(F)cc12", "melting point": "195 to 197 °C"}
{"smiles": "Cl.O=c1[nH]c(C2CCN(CCc3c[nH]c4cc(F)ccc34)CC2)nc2cc(F)ccc12", "melting point": "205 to 209 °C"}
{"smiles": "Cl.Cl.O=c1[nH]c(C2CCN(CCc3c[nH]c4cc(F)ccc34)CC2)nc2cc(F)c(F)cc12", "melting point": "215 to 217 °C"}
{"smiles": "COc1ccc2nc(C3CCN(CCc4c[nH]c5cc(F)ccc45)CC3)[nH]c(=O)c2c1.Cl", "melting point": "230 to 232 °C"}
{"smiles": "COc1cc2nc(C3CCN(CCc4c[nH]c5cc(F)ccc45)CC3)[nH]c(=O)c2cc1OC.Cl", "melting point": "229 to 231 °C"}
{"smiles": "O=c1[nH]c(C2CCN(CCc3c[nH]c4ccccc34)CC2)nc2ccccc12", "note": "(as salt: hydrochloride)", "melting point": "268 to 270 °C"}
